These results are taken from BindingDB's records for doi:10.7270/Q2DF6PMF (Nmmlsc, 2007).

This assay has as its target T1, N-formyl peptide receptor 2 (Homo sapiens, UniProt P25090).
T1 sequence (P25090 whole entry): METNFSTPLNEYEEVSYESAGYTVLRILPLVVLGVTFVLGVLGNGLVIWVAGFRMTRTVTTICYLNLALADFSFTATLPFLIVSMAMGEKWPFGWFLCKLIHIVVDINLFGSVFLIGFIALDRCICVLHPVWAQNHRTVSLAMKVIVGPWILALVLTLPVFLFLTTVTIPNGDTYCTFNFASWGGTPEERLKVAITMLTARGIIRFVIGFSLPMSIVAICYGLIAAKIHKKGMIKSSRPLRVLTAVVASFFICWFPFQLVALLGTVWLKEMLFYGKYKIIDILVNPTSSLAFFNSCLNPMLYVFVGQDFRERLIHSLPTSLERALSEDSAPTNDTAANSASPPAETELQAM
Nature of the assay: FPRL1 binding inhibitor potency, dose response, cell-based, FPR counter-screen, fluorescent ligand (AID 520). (Counterscreens check selectivity or assay interference.)

[1] abbreviates: inactive by the depositor's call.

Counter-ions that a name gives are not always drawn.

In general, IC50 refers to the concentration at which inhibition is half-maximal. High values mean a need for much substance, low ones inhibition by little substance. One may read the Ki as a measure of affinity in units of concentration, obtained from inhibition or displacement. Low values mean a stronger hold on the target, high ones a looser hold on the target.

With `Cc1ccc(C(=O)C2C(=O)C(=O)N(CC(C)O)C2c2ccc(N(C)C)cc2)cc1` (stereo not drawn) [(4E)-5-[4-(dimethylamino)phenyl]-1-(2-hydroxypropyl)-4-[hydroxy(p-tolyl)methylene]pyrrolidine-2,3-quinone], the IC50 was over 66.7 µM and the Ki was over 40.3 µM.
Consider `CCOc1cccc(C(=O)C2C(=O)C(=O)N(Cc3ccco3)C2c2ccncc2)c1` (stereo not drawn) [(4Z)-1-(2-furfuryl)-4-[hydroxy(m-phenetyl)methylene]-5-(4-pyridyl)pyrrolidine-2,3-quinone], for which the IC50 was over 66.7 µM and the Ki is over 40.3 µM.
For `COc1ccccc1C1C(C(=O)c2ccccc2)C(=O)C(=O)N1CCO` (stereo not drawn) [(4Z)-1-(2-hydroxyethyl)-4-[hydroxy(phenyl)methylene]-5-(2-methoxyphenyl)pyrrolidine-2,3-quinone], the IC50 was over 66.7 µM and the inhibition constant (Ki) was over 40.3 µM.
Molecule `CCOc1ccc(C(=O)C2C(=O)C(=O)N(c3nc(C)c(C)s3)C2c2ccco2)cc1` (stereo not drawn) [(4Z)-1-(4,5-dimethyl-1,3-thiazol-2-yl)-4-[(4-ethoxyphenyl)-hydroxymethylidene]-5-(furan-2-yl)pyrrolidine-2,3-dione] came in with an IC50 of over 66.7 µM and a Ki of over 40.3 µM.
On to `COc1ccc(C(=O)C2C(=O)C(=O)N(c3nc(C)c(C)s3)C2c2ccco2)cc1` (stereo not drawn) [(4Z)-1-(4,5-dimethyl-1,3-thiazol-2-yl)-5-(furan-2-yl)-4-[(4-methoxyphenyl)-oxidanyl-methylidene]pyrrolidine-2,3-dione], for which the IC50 is over 66.7 µM and the inhibitory constant (Ki) was over 40.3 µM.
`CCOc1cccc(C(=O)C2C(=O)C(=O)N(CCOC)C2c2ccc(C)o2)c1` (stereo not drawn) [(4Z)-4-[(3-ethoxyphenyl)-hydroxymethylidene]-1-(2-methoxyethyl)-5-(5-methyl-2-furanyl)pyrrolidine-2,3-dione]: the IC50 is over 66.7 µM and the Ki is over 40.3 µM.
In turn, `CCOc1cccc(C(=O)C2C(=O)C(=O)N(Cc3cccnc3)C2c2ccco2)c1` (stereo not drawn) [(4Z)-4-[(3-ethoxyphenyl)-hydroxymethylidene]-5-(2-furanyl)-1-(3-pyridinylmethyl)pyrrolidine-2,3-dione] displayed an IC50 of over 66.7 µM and a Ki of over 40.3 µM.
Consider `Cc1ccc(C2C(C(=O)c3ccc(Br)cc3)C(=O)C(=O)N2Cc2ccco2)o1` (stereo not drawn) [(4Z)-4-[(4-bromophenyl)-hydroxy-methylene]-1-(2-furfuryl)-5-(5-methyl-2-furyl)pyrrolidine-2,3-quinone], for which the IC50 is over 66.7 µM and the Ki was over 40.3 µM.
In turn, `Cc1ccc(C2C(C(=O)c3ccc(Cl)cc3)C(=O)C(=O)N2CC2CCCO2)o1` (stereo not drawn) [(4Z)-4-[(4-chlorophenyl)-hydroxy-methylene]-5-(5-methyl-2-furyl)-1-(tetrahydrofurfuryl)pyrrolidine-2,3-quinone] gave an IC50 of over 66.7 µM and a Ki of over 40.3 µM.
Turning to `CCOc1ccc(C(=O)C2C(=O)C(=O)N(CC3CCCO3)C2c2ccco2)cc1` (stereo not drawn) [(4Z)-4-[(4-ethoxyphenyl)-hydroxymethylidene]-5-(2-furanyl)-1-(2-oxolanylmethyl)pyrrolidine-2,3-dione], the IC50 was over 66.7 µM and the Ki was over 40.3 µM.
Molecule `CCOc1ccc(C(=O)C2C(=O)C(=O)N(CC3CCCO3)C2c2ccc(C)o2)cc1` (stereo not drawn) [(4Z)-4-[(4-ethoxyphenyl)-hydroxymethylidene]-5-(5-methyl-2-furanyl)-1-(2-oxolanylmethyl)pyrrolidine-2,3-dione] gave an IC50 of over 66.7 µM and a Ki of over 40.3 µM.
On to `COc1ccc(C(=O)C2C(=O)C(=O)N(CCN3CCOCC3)C2c2ccc(C)cc2)cc1` (stereo not drawn) [(4Z)-4-[(4-methoxyphenyl)-oxidanyl-methylidene]-5-(4-methylphenyl)-1-(2-morpholin-4-ylethyl)pyrrolidine-2,3-dione], for which the IC50 is over 66.7 µM and the Ki is over 40.3 µM.
Turning to `Cc1ccc(C(=O)C2C(=O)C(=O)N(CCN3CCOCC3)C2c2cccnc2)cc1` (stereo not drawn) [(4Z)-4-[(4-methylphenyl)-oxidanyl-methylidene]-1-(2-morpholin-4-ylethyl)-5-pyridin-3-yl-pyrrolidine-2,3-dione], the IC50 was over 66.7 µM and the inhibition constant Ki is over 40.3 µM.
As to `COc1ccccc1C1C(C(=O)c2ccccc2)C(=O)C(=O)N1CC(C)O` (stereo not drawn) [(4Z)-4-[hydroxy(phenyl)methylene]-1-(2-hydroxypropyl)-5-(2-methoxyphenyl)pyrrolidine-2,3-quinone], the IC50 is over 66.7 µM and the inhibition constant (Ki) is over 40.3 µM.
On to `COc1ccccc1C1C(C(=O)c2ccccc2)C(=O)C(=O)N1CC(C)C` (stereo not drawn) [(4Z)-4-[hydroxy(phenyl)methylene]-1-isobutyl-5-(2-methoxyphenyl)pyrrolidine-2,3-quinone], for which the IC50 is over 66.7 µM and the Ki is over 40.3 µM.
Turning to `Cc1ccc(C2C(C(=O)c3cnn(-c4ccccc4)c3C)C(=O)C(=O)N2CCN2CCOCC2)o1` (stereo not drawn) [(4Z)-4-[hydroxy-(5-methyl-1-phenyl-4-pyrazolyl)methylidene]-5-(5-methyl-2-furanyl)-1-[2-(4-morpholinyl)ethyl]pyrrolidine-2,3-dione], the IC50 is over 66.7 µM and the Ki was over 40.3 µM.
Taken in the same sequence, the figures for `COc1ccc(C2C(C(=O)c3ccccc3)C(=O)C(=O)N2CC(C)O)c(OC)c1` (stereo not drawn) [(4Z)-5-(2,4-dimethoxyphenyl)-4-[hydroxy(phenyl)methylene]-1-(2-hydroxypropyl)pyrrolidine-2,3-quinone] were over 66.7 µM and over 40.3 µM.
The corresponding values for `COc1ccc(OC)c(C2C(C(=O)c3ccccc3)C(=O)C(=O)N2Cc2ccco2)c1` (stereo not drawn) [(4Z)-5-(2,5-dimethoxyphenyl)-1-(2-furanylmethyl)-4-[hydroxy(phenyl)methylidene]pyrrolidine-2,3-dione] are over 66.7 µM and over 40.3 µM.
On to `COc1cccc(C(=O)C2C(=O)C(=O)N(Cc3cccnc3)C2c2ccco2)c1` (stereo not drawn) [(4Z)-5-(2-furanyl)-4-[hydroxy-(3-methoxyphenyl)methylidene]-1-(3-pyridinylmethyl)pyrrolidine-2,3-dione], for which the IC50 is over 66.7 µM and the Ki was over 40.3 µM.
For the molecule `CCN1C(=O)/C(=C2\SC(=S)N(CCCOC)C2=O)c2ccccc21` [(5Z)-5-(1-ethyl-2-keto-indolin-3-ylidene)-3-(3-methoxypropyl)-2-thioxo-thiazolidin-4-one], the IC50 was over 66.7 µM.
The molecule `O=C1Nc2ccccc2/C1=C1/SC(=S)N(CC2CCCO2)C1=O` (stereo not drawn) [(5Z)-5-(2-ketoindolin-3-ylidene)-3-(tetrahydrofurfuryl)-2-thioxo-thiazolidin-4-one] gave an IC50 of over 66.7 µM and a Ki of over 40.3 µM.
For the molecule `CCOC(=O)c1c(C)[nH]c(C=Nc2ccccc2)c1O` [(5Z)-5-(anilinomethylidene)-2-methyl-4-oxo-1H-pyrrole-3-carboxylic acid ethyl ester], the IC50 was over 66.7 µM.
In turn, `C=C(c1ccc(Br)cc1)c1sc(N2CCCC2)nc1O` [(5Z)-5-[1-(4-bromophenyl)ethylidene]-2-(1-pyrrolidinyl)-4-thiazolone] gave an IC50 of over 66.7 µM and a Ki of over 40.3 µM.
In turn, `COc1cccc2c1C(=O)c1c(O)c3c(c(O)c1C2=O)C[C@@](O)(C(C)=O)C[C@@H]3O[C@H]1C[C@H](N)[C@H](O)[C@H](C)O1` [(7S,9S)-9-acetyl-7-[(2R,4S,5S,6S)-4-amino-5-hydroxy-6-methyloxan-2-yl]oxy-6,9,11-trihydroxy-4-methoxy-8,10-dihydro-7H-tetracene-5,12-dione;hydrochloride] registered a half-inhibitory concentration (IC50) of 25.1 µM.
The molecule `O=C(Cn1cnc2c(cnn2-c2ccc(F)cc2)c1=O)OCc1ccccc1` [(phenylmethyl) 2-[1-(4-fluorophenyl)-4-oxidanylidene-pyrazolo[3,4-d]pyrimidin-5-yl]ethanoate] returned an IC50 of over 66.7 µM.
Consider `CN(C)c1nc(N(C)C)nc(N(C)C)n1` [ALTRETAMINE], for which the concentration for half-maximal inhibition (IC50) is over 66.7 µM.
Regarding `CCN(CCCc1ccccc1)CCCc1ccccc1` [ALVERINE CITRATE SALT], the concentration for half-maximal inhibition (IC50) is over 66.7 µM.
The molecule `CC1(C)S[C@@H]2[C@H](NC(=O)C(C(=O)O)c3ccccc3)C(=O)N2[C@H]1C(=O)O` (stereo partly drawn) [CARBENICILLIN DISODIUM SALT] showed a half-maximal inhibitory concentration (IC50) of over 66.7 µM.
Molecule `COc1ccccc1NC(=O)CSc1nnc(Cn2nnc(-c3ccccc3)n2)n1-c1ccccc1` [MLS000032410] gave an IC50 of over 66.7 µM.
Molecule `Cc1[nH]n2c(=O)c3c(nc2c1-c1ccc(Cl)cc1)CCC3` [MLS000034815] gave an IC50 of over 66.7 µM.
The molecule `COc1ccc(CN(C(=O)c2ccccc2OC)C2CCS(=O)(=O)C2)cc1` (stereo not drawn) [MLS000041347] displayed an IC50 of over 66.7 µM.
The molecule `COc1ccc(NC(=O)C(c2ccc(C)cc2)N(C)C(=O)c2cnccn2)cc1` (stereo not drawn) [MLS000044155] registered an IC50 of over 66.7 µM.
The molecule `COc1ccc(-c2nnc(Nc3nc4c(OC)cccc4s3)o2)cc1` [MLS000045458] yielded an IC50 of over 66.7 µM.
`O=c1cc(N2CCc3ccccc32)[nH]c(=O)n1Cc1ccc(F)cc1` [MLS000045863] gave an IC50 of over 66.7 µM.
`CCCC(=O)Nc1cc(-c2cn3cccnc3n2)ccc1OC` [MLS000045942] gave an IC50 under setting [1] of 22.8 µM.
On the same count and under the same terms, then `COc1ccc(-c2cn3cccnc3n2)cc1NC(=O)CC(C)C` [MLS000045943], with 45 µM.
In turn, `COc1ccc(-c2cn3cccnc3n2)cc1NC(=O)C1CC1` [MLS000045944] gave an IC50 of 7.6 µM.
`COc1ccc(-c2cn3cccnc3n2)cc1NC(=O)C1CCCC1` [MLS000045945] displayed an IC50 of over 66.7 µM.
For the molecule `Cc1ccc(NC(=O)c2oc3ccc(S(=O)(=O)N4CCOCC4)cc3c2C)cc1C` [MLS000046288], the IC50 is over 66.7 µM.
`O=C(NCCCN1CCN(c2ccc(F)cc2)CC1)c1cccc(N2CCCC2=O)c1` [MLS000046779] had an IC50 of over 66.7 µM.
Take `CCOC(=O)Nc1ccc(OC)cc1S(=O)(=O)N1CCCCC1` [MLS000048808]: the IC50 was over 66.7 µM.
`COc1ccc(S(=O)(=O)NC(C)C(=O)Nc2cccc(C(C)=O)c2)cc1` (stereo not drawn) [MLS000051414] returned an IC50 of over 66.7 µM.
